# Measurements from ChEMBL document CHEMBL3627692, “Inhibition of mammalian carbonic anhydrase isoforms I-XIV with a series of phenolic acid esters” (Bioorg Med Chem, 2015).
# Columns and labels:
# Carbonic anhydrase 2 = Carbonic anhydrase 2 (Homo sapiens, UniProt P00918); assay: Inhibition of human carbonic anhydrase 2 preincubated for 15 mins by stopped-flow CO2 hydration assay
# Carbonic anhydrase 13 = Carbonic anhydrase 13 (Mus musculus, UniProt Q9D6N1); assay: Inhibition of mouse carbonic anhydrase 13 preincubated for 15 mins by stopped-flow CO2 hydration assay
# Carbonic anhydrase 13, sequence (Q9D6N1 whole entry, the tested form may be a part): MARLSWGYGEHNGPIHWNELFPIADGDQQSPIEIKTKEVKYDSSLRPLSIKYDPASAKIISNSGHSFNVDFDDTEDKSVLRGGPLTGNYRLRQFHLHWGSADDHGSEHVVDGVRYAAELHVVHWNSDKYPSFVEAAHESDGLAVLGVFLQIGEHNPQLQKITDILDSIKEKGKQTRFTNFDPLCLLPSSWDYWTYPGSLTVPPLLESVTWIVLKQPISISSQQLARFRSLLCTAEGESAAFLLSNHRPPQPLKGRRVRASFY
# Carbonic anhydrase 9 = Carbonic anhydrase 9 (Homo sapiens, UniProt Q16790); assay: Inhibition of human catalytic domain of carbonic anhydrase 9 preincubated for 15 mins by stopped-flow CO2 hydration assay
# Carbonic anhydrase 3 = Carbonic anhydrase 3 (Homo sapiens, UniProt P07451); assay: Inhibition of human carbonic anhydrase 3 preincubated for 15 mins by stopped-flow CO2 hydration assay
# Carbonic anhydrase 3, sequence (P07451 whole entry): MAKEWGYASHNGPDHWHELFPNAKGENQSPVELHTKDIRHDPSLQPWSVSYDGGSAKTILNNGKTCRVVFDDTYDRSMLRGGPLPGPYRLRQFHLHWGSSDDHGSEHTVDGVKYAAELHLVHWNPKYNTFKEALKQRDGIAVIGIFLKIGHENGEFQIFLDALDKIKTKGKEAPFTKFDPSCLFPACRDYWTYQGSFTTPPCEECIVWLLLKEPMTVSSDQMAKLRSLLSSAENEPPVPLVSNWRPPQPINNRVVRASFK
# Carbonic anhydrase 1 = Carbonic anhydrase 1 (Homo sapiens, UniProt P00915); assay: Inhibition of human carbonic anhydrase 1 preincubated for 15 mins by stopped-flow CO2 hydration assay
# Carbonic anhydrase 1, sequence (P00915 whole entry): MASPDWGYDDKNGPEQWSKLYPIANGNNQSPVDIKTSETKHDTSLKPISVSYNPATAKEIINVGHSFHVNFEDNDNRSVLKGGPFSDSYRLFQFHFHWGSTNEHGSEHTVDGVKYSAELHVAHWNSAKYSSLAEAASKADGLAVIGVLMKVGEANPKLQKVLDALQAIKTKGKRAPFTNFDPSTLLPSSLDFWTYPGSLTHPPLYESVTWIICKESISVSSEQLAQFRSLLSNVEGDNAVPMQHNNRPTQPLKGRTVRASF
# [1] = target: Carbonic anhydrase 5B, mitochondrial (Homo sapiens, UniProt Q9Y2D0); assay: Inhibition of human carbonic anhydrase 5B preincubated for 15 mins by stopped-flow CO2 hydration assay
# Carbonic anhydrase 5B, mitochondrial, sequence (Q9Y2D0 whole entry): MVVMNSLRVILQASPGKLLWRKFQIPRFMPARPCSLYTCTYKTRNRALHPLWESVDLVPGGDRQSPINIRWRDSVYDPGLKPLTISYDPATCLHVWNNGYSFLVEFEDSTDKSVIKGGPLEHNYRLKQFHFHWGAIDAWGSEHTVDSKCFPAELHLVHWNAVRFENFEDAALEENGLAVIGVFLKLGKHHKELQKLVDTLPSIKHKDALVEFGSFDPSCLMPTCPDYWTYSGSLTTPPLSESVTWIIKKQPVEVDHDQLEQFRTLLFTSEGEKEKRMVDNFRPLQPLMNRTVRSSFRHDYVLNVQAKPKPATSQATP
# Carbonic anhydrase 14 = Carbonic anhydrase 14 (Homo sapiens, UniProt Q9ULX7); assay: Inhibition of human carbonic anhydrase 14 preincubated for 15 mins by stopped-flow CO2 hydration assay
# Carbonic anhydrase 14, sequence (Q9ULX7 whole entry): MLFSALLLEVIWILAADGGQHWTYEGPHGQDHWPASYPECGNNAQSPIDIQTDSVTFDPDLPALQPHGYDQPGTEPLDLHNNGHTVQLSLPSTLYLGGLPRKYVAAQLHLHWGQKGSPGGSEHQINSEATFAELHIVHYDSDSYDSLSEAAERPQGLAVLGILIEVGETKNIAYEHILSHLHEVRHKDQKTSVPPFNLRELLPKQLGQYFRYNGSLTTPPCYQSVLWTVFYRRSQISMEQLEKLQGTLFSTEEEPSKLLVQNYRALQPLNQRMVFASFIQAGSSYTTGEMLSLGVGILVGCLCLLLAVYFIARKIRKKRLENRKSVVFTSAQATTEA
# Carbonic anhydrase 4 = Carbonic anhydrase 4 (Homo sapiens, UniProt P22748); assay: Inhibition of human carbonic anhydrase 4 preincubated for 15 mins by stopped-flow CO2 hydration assay
# Carbonic anhydrase 4, sequence (P22748 whole entry): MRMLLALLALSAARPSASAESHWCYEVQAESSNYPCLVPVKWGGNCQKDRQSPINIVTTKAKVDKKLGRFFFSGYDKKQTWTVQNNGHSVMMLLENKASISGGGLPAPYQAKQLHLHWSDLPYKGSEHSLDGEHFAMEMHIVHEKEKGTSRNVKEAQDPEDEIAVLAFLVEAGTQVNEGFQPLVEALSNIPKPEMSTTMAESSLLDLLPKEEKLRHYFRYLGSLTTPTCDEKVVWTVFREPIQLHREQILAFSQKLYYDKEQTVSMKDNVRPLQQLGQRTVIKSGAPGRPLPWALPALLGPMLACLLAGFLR
# Carbonic anhydrase 6 = Carbonic anhydrase 6 (Homo sapiens, UniProt P23280); assay: Inhibition of human carbonic anhydrase 6 preincubated for 15 mins by stopped-flow CO2 hydration assay
# Carbonic anhydrase 6, sequence (P23280 whole entry): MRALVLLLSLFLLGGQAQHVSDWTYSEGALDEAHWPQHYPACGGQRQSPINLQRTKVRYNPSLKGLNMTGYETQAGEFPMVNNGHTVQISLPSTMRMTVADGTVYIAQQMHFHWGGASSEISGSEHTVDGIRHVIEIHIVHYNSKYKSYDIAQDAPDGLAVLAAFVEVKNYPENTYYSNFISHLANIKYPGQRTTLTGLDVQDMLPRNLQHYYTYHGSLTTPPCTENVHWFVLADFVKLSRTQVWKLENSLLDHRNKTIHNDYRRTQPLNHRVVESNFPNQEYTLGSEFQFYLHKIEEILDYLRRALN
# [2] = target: Carbonic anhydrase 5A, mitochondrial (Homo sapiens, UniProt P35218); assay: Inhibition of human carbonic anhydrase 5A preincubated for 15 mins by stopped-flow CO2 hydration assay
# Carbonic anhydrase 5A, mitochondrial, sequence (P35218 whole entry): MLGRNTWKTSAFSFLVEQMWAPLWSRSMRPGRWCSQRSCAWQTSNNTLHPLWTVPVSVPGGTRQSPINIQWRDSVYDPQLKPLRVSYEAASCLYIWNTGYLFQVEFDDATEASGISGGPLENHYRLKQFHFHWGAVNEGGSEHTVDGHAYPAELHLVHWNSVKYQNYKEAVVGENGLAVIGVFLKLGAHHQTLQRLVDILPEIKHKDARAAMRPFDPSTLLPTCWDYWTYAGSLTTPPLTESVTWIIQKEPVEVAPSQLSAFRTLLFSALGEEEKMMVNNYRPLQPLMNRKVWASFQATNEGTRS
# Carbonic anhydrase 7 = Carbonic anhydrase 7 (Homo sapiens, UniProt P43166); assay: Inhibition of human carbonic anhydrase 7 preincubated for 15 mins by stopped-flow CO2 hydration assay
# Carbonic anhydrase 7, sequence (P43166 whole entry, the tested form may be a part): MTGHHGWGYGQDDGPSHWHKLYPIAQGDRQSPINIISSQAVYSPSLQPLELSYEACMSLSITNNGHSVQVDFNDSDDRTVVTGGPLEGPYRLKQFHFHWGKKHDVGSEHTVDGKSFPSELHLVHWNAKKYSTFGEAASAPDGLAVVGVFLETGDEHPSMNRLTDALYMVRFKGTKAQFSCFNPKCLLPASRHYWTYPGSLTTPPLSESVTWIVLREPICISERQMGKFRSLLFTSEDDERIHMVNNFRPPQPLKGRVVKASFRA
# Carbonic anhydrase 12 = Carbonic anhydrase 12 (Homo sapiens, UniProt O43570); assay: Inhibition of human catalytic domain of carbonic anhydrase 12 preincubated for 15 mins by stopped-flow CO2 hydration assay
# Carbonic anhydrase 12, sequence (O43570 whole entry, the tested form may be a part): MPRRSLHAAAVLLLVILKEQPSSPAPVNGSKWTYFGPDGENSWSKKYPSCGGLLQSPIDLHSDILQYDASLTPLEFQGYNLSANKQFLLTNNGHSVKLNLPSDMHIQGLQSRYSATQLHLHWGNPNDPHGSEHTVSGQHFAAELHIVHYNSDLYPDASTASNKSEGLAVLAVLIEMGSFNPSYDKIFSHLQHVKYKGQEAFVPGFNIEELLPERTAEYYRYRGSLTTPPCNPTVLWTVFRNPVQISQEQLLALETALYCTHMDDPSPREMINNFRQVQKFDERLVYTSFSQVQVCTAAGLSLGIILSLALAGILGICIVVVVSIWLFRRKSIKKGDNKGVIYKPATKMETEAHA
SMILES,Ki (Carbonic anhydrase 2),Ki (Carbonic anhydrase 13),Ki (Carbonic anhydrase 9),Ki (Carbonic anhydrase 3),Ki (Carbonic anhydrase 1),Ki [1],Ki (Carbonic anhydrase 14),Ki (Carbonic anhydrase 4),Ki (Carbonic anhydrase 6),Ki [2],Ki (Carbonic anhydrase 7),Ki (Carbonic anhydrase 12)
O=C(/C=C/c1ccc(O)c(O)c1)OCCc1cccc(OCCc2cccc(O)c2)c1,> 50 µM,0.9 µM,0.97 µM,> 50 µM,9.62 µM,–,–,–,–,–,–,–
COc1cc(/C=C/C(=O)OCCc2ccc(O)cc2)ccc1O,> 50 µM,0.93 µM,0.81 µM,> 50 µM,> 50 µM,–,–,–,–,–,–,–
COc1cc(/C=C/C(=O)OCc2ccccc2)ccc1O [BENZYL FERULATE],> 50 µM,0.94 µM,1.03 µM,> 50 µM,> 50 µM,–,–,–,–,–,–,–
O=C(/C=C/c1ccc(O)cc1)OCCc1cccc(O)c1,> 50 µM,11.6 µM,0.82 µM,> 50 µM,3.66 µM,–,–,–,–,–,–,–
COc1cc(/C=C/C(=O)OCCc2cccc(O)c2)ccc1O,> 50 µM,0.91 µM,0.99 µM,> 50 µM,> 50 µM,–,–,–,–,–,–,–
O=C(/C=C/c1ccc(O)cc1)OCc1ccccc1,> 50 µM,8.92 µM,0.86 µM,> 50 µM,> 50 µM,0.8 µM,0.81 µM,18.7 µM,0.73 µM,0.97 µM,0.72 µM,29.4 µM
O=C(/C=C/c1ccc(O)cc1)OCCc1ccc(O)cc1,> 50 µM,13.9 µM,0.71 µM,> 50 µM,3.87 µM,–,–,–,–,–,–,–
O=C(/C=C/c1ccc(O)c(O)c1)OCCc1ccc(OCCc2ccc(O)cc2)cc1,> 50 µM,0.84 µM,0.93 µM,> 50 µM,5.23 µM,–,–,–,–,–,–,–
